Tested on: Salmonella enterica
Assay: inactivation with further addition of the microorganism after predetermined periods
Format: cell-based
Details: ε-poly-L-lysine 5 ppm
Procedure: Each test microbe was inoculated to nutrient broth and cultured with shaking at the optimum temperature of the test microbe until the late logarithmic phase. From the microbe culture, the microbe was collected, and the collected microbe was washed with 1.5 mL of physiological saline 2 to 3 times (centrifugation at 13000 rpm for 1 minute) and suspended in 1.5 mL of physiological saline. From the suspension, a 1 mL aliquot was recovered, and this was added to 9 mL of sterile water, followed by sufficient stirring of the resulting suspension (this was used as 10^−1 dilution). From the 10^−1 dilution, 10^−2 to 10^−8 dilutions were sequentially prepared. Each dilution was smeared on a film medium (Sanita-kun; for E. coli and coliform bacteria, for Staphylococcus aureus, for Salmonella, for aerobic bacteria or for fungi: Chisso Corporation) in an amount of 1 mL, followed by culturing at the optimum temperature of the test microbe for 24 to 72 hours and measurement of the number of cells on the film medium.
To a sterilized beaker, 500 mL of sterilized water was placed, and 0.20 mL of microbe culture of 10^6 to 10^10 cells/mL was inoculated thereto, to attain an initial cell number of 10^3 to 10^7 cells/mL. Unless otherwise specified, the pH was 6 to 8. After stirring the suspension gently for 5 minutes, PGα21Ca (Nippon Poly-Glu Co., Ltd.) and/or a microbiostatic agent or microbicide was/were added thereto such that a predetermined final concentration(s) was/were attained. After gentle stirring at room temperature for 10 to 15 minutes, the suspension was left to stand for a predetermined length of time. The supernatant was collected and diluted appropriately in an antimicrobial agent-inactivating medium (BHI medium or the like), and 1 mL each of the resulting diluent was smeared on a film medium. Culturing was carried out at the optimum temperature of each test microbe for 24 to 72 hours and the number of cells (cells/mL) on the film medium was measured.
(3) The inactivation effect of ε-poly-L-lysine, which is a microbicide related to the microorganism-inactivating agent of the present invention, upon its single application to water containing Escherichia coli, Salmonella or Staphylococcus, followed by further addition of the respective microorganisms after predetermined periods of time was studied. The addition of the microorganisms was carried out at 24, 48, 72 and 144 hours after sampling. ε-poly-L-lysine was added at a concentration of 5 ppm. […]

[1] = further addition of microbe at 24 h (3.2 × 10^7)
[2] = further addition of microbe at 48 h (3.6 × 10^6)
[3] = further addition of microbe at 72 h (3.0 × 10^6)
[4] = further addition of microbe at 144 h (3.1 × 10^6)

ε-poly-L-lysine
<10 cells/mL: number of cells, elapsed time 26 hours [1] | number of cells, elapsed time 28 hours [1] | number of cells, elapsed time 48 hours [1] | number of cells, elapsed time 50 hours [2] | number of cells, elapsed time 52 hours [2] | number of cells, elapsed time 72 hours [2] | number of cells, elapsed time 74 hours [3] | number of cells, elapsed time 76 hours [3] | number of cells, elapsed time 96 hours [3] | number of cells, elapsed time 144 hours [3] | number of cells, elapsed time 146 hours [4] | number of cells, elapsed time 148 hours [4] | number of cells, elapsed time 168 hours [4] | number of cells, elapsed time 2 hours (initial 3.0 × 10^6) | number of cells, elapsed time 4 hours (initial 3.0 × 10^6) | number of cells, elapsed time 24 hours (initial 3.0 × 10^6)
